# Measurements taken from ChEMBL document CHEMBL3864190, “Discovery of Pyrazolopyrimidine Derivatives as Novel Dual Inhibitors of BTK and PI3Kδ” (ACS Med Chem Lett, 2016).
# pIC50: −log10 of the molar value.
# Key:
# [1] = biological target: T1, Tyrosine-protein kinase BTK (Homo sapiens, UniProt Q06187); details: at 100 nM
# [2] = biological target: T2, Phosphatidylinositol 4,5-bisphosphate 3-kinase catalytic subunit delta isoform (Homo sapiens) (UniProt O00329); experiment: Inhibition of PI3Kdelta (unknown origin) using biotinylated PIP2 as substrate at 100 nM in presence of streptavidin-APC by FRET assay
# T2 sequence (whole entry): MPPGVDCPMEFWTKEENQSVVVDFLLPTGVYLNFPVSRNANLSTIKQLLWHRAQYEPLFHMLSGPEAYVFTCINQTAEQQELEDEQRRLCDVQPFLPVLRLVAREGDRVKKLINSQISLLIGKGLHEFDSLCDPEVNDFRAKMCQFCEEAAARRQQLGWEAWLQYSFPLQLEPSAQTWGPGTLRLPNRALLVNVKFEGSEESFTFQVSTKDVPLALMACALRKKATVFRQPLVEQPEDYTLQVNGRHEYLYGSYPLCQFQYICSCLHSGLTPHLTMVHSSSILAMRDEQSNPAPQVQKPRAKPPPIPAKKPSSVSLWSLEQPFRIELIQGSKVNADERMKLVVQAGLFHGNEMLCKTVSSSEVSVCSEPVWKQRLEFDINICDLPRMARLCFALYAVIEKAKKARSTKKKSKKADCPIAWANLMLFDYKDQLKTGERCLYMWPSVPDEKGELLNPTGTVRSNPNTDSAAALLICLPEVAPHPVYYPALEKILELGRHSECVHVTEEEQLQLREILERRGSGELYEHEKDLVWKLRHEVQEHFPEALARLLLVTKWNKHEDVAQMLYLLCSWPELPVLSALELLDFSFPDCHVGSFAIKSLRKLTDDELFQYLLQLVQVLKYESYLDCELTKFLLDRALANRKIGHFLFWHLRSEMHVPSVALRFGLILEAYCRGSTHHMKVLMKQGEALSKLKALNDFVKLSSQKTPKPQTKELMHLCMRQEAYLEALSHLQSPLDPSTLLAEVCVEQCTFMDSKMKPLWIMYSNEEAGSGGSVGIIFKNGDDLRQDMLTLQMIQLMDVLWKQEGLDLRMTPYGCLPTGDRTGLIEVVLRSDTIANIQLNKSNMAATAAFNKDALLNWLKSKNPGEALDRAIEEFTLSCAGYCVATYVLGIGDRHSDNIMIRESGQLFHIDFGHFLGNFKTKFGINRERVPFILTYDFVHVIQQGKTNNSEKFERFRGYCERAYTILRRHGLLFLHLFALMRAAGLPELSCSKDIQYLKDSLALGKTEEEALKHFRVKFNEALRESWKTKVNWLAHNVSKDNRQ
# [3] = Drug metabolism in mouse liver microsomes assessed as UGT-mediated compound glucuronidation by measuring parent compound remaining at 5 uM after 30 mins in presence of UDPGA by LC-MS/MS analysis; format: ADME; details: for remaining at 0.5 h, 5 µM: liver microsomes, read-out: Stability
# [4] = biological target: T1, Tyrosine-protein kinase BTK
# [5] = biological target: T3, Phosphatidylinositol 4,5-bisphosphate 3-kinase catalytic subunit delta isoform (Homo sapiens, UniProt O00329); experiment: Inhibition of PI3Kdelta (unknown origin) using biotinylated PIP2 as substrate in presence of streptavidin-APC by FRET assay
# T3 sequence (O00329 whole entry): T2 sequence (whole entry)
# [6] = Oral bioavailability in mouse plasma at 10 mg/kg by HPLC/MS analysis; format: ADME, organism-based
# [7] = Apparent volume of distribution in mouse plasma at 2 mg/kg, iv or 10 mg/kg, po by HPLC/MS analysis; format: ADME, organism-based; details: in vivo
# [8] = Drug metabolism in mouse liver microsomes assessed as compound oxidation by measuring parent compound remaining at 1 uM after 30 mins in presence of NADPH by LC-MS/MS analysis; format: ADME; details: for Stability: microsomes, 0.5 h, 1 µM
# [9] = Drug metabolism in rat liver microsomes assessed as compound oxidation by measuring parent compound remaining at 1 uM after 30 mins in presence of NADPH by LC-MS/MS analysis; format: ADME
# [10] = Drug metabolism in dog liver microsomes assessed as compound oxidation by measuring parent compound remaining at 1 uM after 30 mins in presence of NADPH by LC-MS/MS analysis; format: ADME, Canis lupus familiaris; details: 0.5 h
# [11] = Drug metabolism in human liver microsomes assessed as compound oxidation by measuring parent compound remaining at 1 uM after 30 mins in presence of NADPH by LC-MS/MS analysis; format: ADME; details: for remaining at 0.5 h, 1 µM: liver microsomes, read-out: Stability
# [12] = Half life in mouse plasma at 10 mg/kg, po by HPLC/MS analysis; format: ADME, organism-based
# [13] = Protein binding in mouse plasma; format: ADME, cell-free
# [14] = AUC in mouse plasma at 10 mg/kg, po by HPLC/MS analysis; format: ADME, organism-based
# [15] = Clearance in mouse plasma at 2 mg/kg, iv or 10 mg/kg, po by HPLC/MS analysis; format: ADME, organism-based; details: in vivo
# [16] = Efflux ratio of apparent permeability from basolateral to apical side over apical to basolateral side in human Caco2 cells; format: ADME, cell-based; details: caco-2
# [17] = Drug metabolism in human liver microsomes assessed as UGT-mediated compound glucuronidation by measuring parent compound remaining at 5 uM after 30 mins in presence of UDPGA by LC-MS/MS analysis; format: ADME; details: read-out: Stability
# [18] = AUC in mouse plasma at 5 mg/kg, po by HPLC/MS analysis; format: ADME, organism-based
# [19] = Half life in mouse plasma at 5 mg/kg, po by HPLC/MS analysis; format: ADME, organism-based
# [20] = Oral bioavailability in mouse plasma at 5 mg/kg by HPLC/MS analysis; format: ADME, organism-based
# [21] = Apparent volume of distribution in mouse plasma at 1 mg/kg, iv or 5 mg/kg, po by HPLC/MS analysis; format: ADME, organism-based; details: read-out: Vz
# [22] = Clearance in mouse plasma at 1 mg/kg, iv or 5 mg/kg, po by HPLC/MS analysis; format: ADME, organism-based
# [23] = liver microsomes, read-out: Stability
# T1 sequence (Q06187 whole entry, canonical isoform): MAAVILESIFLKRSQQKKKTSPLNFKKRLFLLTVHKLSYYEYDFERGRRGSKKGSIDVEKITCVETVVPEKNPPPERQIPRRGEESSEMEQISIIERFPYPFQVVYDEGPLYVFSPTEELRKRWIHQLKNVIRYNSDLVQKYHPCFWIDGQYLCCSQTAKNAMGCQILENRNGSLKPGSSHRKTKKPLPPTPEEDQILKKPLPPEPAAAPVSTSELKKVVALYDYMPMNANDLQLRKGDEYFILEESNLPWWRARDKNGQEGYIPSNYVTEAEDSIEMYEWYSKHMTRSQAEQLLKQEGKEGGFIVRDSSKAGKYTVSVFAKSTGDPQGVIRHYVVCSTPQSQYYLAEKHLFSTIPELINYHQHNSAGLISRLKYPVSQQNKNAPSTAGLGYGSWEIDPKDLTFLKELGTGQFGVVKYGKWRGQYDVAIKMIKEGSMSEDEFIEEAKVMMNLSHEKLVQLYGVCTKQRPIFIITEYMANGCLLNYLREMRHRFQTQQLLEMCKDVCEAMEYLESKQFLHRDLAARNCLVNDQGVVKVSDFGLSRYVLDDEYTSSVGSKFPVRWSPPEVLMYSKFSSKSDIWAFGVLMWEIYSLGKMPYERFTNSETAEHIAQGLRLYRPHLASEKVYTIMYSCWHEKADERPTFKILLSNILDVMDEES
compound,measurement,setting,value
Nc1ncnc2c1c(-c1cc(F)c(F)c(F)c1)nn2C1Cc2ccccc2C1,inhibition,[1],21%
same,inhibition,[2],21%
same,"remaining at 0.5 h, 5 µM",[3],85%
Nc1ncnc2c1c(-c1cc(F)c3c(c1)NCCO3)nn2C1Cc2cc(F)ccc2C1=O (racemic),inhibition,[1],6.6%
same,inhibition,[2],26%
Nc1ncnc2c1c(-c1ccc3[nH]cnc3c1)nn2C1Cc2ccccc2C1,"remaining at 0.5 h, 5 µM",[3],90%
Nc1ncnc2c1c(-c1ccc(Cl)c(O)c1)nn2C1Cc2ccccc2C1,pIC50,[4],7.85
COc1ccc(-c2nn(C3Cc4ccccc4C3)c3ncnc(N)c23)cc1N,inhibition,[1],72%
same,inhibition,[2],14%
same,"remaining at 0.5 h, 5 µM",[3],89%
Nc1cc(-c2nn(C3Cc4ccccc4C3)c3ncnc(N)c23)ccc1F,inhibition,[1],79%
same,inhibition,[2],8.2%
same,"remaining at 0.5 h, 5 µM",[3],92%
Cc1ccc(-c2nn(C3Cc4ccccc4C3)c3ncnc(N)c23)cc1O,pIC50,[4],7.37
same,pIC50,[5],6.76
"Nc1ccc2c(c1)CC(n1nc(-c3cc(F)c4c(c3)NCCO4)c3c(N)ncnc31)C2 (single isomer, unassigned; (-))",F,[6]; in vivo,40%
same,pIC50,[4],7.49
same,Vz,[7],3.44 L/kg
same,Stability,[8],11%
same,Stability,"[9]; microsomes, 0.5 h, 1 µM",46%
same,Stability,[10],32%
same,Stability,"[11]; microsomes, 0.5 h, 1 µM",63%
same,t1/2,[12]; in vivo,1.3 h
same,PPB,[13],98%
same,pIC50,[5],7.80
same,AUC,[14]; in vivo,15.2 µM·h
same,Stability,"[3]; microsomes, 0.5 h, 5 µM",99%
same,CL,[15],9.83 mL/min/kg
same,Ratio,[16],1.7
Nc1ncnc2c1c(-c1cc(F)c3c(c1)NCCO3)nn2C1Cc2ccccc2C1,inhibition,[1],52%
same,inhibition,[2],53%
same,"remaining at 0.5 h, 5 µM",[3],91%
Nc1ncnc2c1c(-c1ccc(Br)c(O)c1)nn2C1Cc2ccccc2C1,"remaining at 0.5 h, 1 µM",[8]; [23],53%
same,"remaining at 0.5 h, 5 µM",[17],5.2%
same,"remaining at 0.5 h, 1 µM",[11],66%
same,AUC,[18],0.213 µM·h
same,half-life,[19],2.3 h
same,bioavailability,[20],6.9%
same,Vd,[21],5.9 L/kg
same,"remaining at 0.5 h, 5 µM",[3],13%
same,clearance,[22],63.7 mL/min/kg
"Nc1ccc2c(c1)CC(n1nc(-c3cc(F)c4c(c3)NCCO4)c3c(N)ncnc31)CC2 (single isomer, unassigned; (-))",pIC50,[4],7.72
same,pIC50,[5],7.14
Nc1ccc2c(c1)CC(n1nc(-c3cc(F)c4c(c3)NCCO4)c3c(N)ncnc31)C2 (stereo in doubt; (+)-32),bioavailability,[6]; plasma,57%
same,pIC50,[4],7.62
same,Vz,[7],0.58 L/kg
same,Stability,[8],28%
same,"remaining at 0.5 h, 1 µM",[9]; [23],45%
same,Stability,[10],65%
same,"remaining at 0.5 h, 5 µM",[17],91%
same,"remaining at 0.5 h, 1 µM",[11],71%
same,half-life,[12]; plasma,1.2 h
same,fraction unbound,[13]; read-out: PPB (converted),0.02
same,pIC50,[5],7.33
same,AUC,"[14]; plasma, read-out: AUC",9.28 µM·h
same,"remaining at 0.5 h, 5 µM",[3],93%
same,CL,[15],24.3 mL/min/kg
same,efflux ratio,[16],1.3
Cc1ccccc1-n1c(Cn2nc(-c3cc(O)cc(F)c3)c3c(N)ncnc32)nc2cccc(C)c2c1=O,pIC50,[4],< 5.00
"Nc1ccc2c(c1)CC(n1nc(-c3cc(F)c4c(c3)NCCO4)c3c(N)ncnc31)CC2 (single isomer, unassigned; (+))",pIC50,[4],6.75
same,pIC50,[5],7.26
